Results published in patent publication US7312302B2, “Compositions for the detection of enzyme activity in biological samples and methods of use thereof” (Oncolmmunin, Inc., priority 1997, dated 2007).
Each block holds one compound with its values, some of them ahead of it. Non-standard residues stand in square brackets, D forms with d. Residues, ends and D or L forms follow the SMILES beside them. No end group written: not given here. *: point of attachment. F1 = 5-carboxytetramethylrhodamine (donor fluorophore); code B = not defined here; code J = not defined here; Nle = CCCC[C@H](N)C(=O)O; Cbz = O=C(OCc1ccccc1)*; F^2 = not defined here; CH2F = FC*

Columns and labels:
intracellular caspases = assay: Effect of ZVAD(OMe)FMK on in situ caspase activation in dexamethasone-treated thymocytes, flow cytometry at 6 h; type: cell-based, mouse; parameters: effect when added before or simultaneously with dexamethasone: dose or concentration left out as unconfirmed
Protocol: Thymocytes were treated with 0.1 mM dexamethasone in vitro and analyzed after a total of 6 h incubation. The apoptosis inhibitor ZVAD(OMe)FMK was added at various times of incubation as indicated, and the caspase activities were assessed by flow cytometry. The results are expressed as ratios of mean fluorescence channel number comparing the activity in the presence of 50 mM ZVAD(OMe)FMK with the uninhibited sample for that substrate.
Single cell suspensions of thymocytes were cultured in RPMI 1640 with 10% FCS at a concentration of 10 6 cells/ml. Dexamethasone (final concentration, 0.1 mM) and ZVAD (OMe)FMK (final concentration, 50 mM) were added at the indicated times from stock solutions in DMSO (100 mM for dexamethasone and 200 mM for ZVAD[OMe]FMK). […] After washing in saline, cells were analyzed by flow cytometry. […] The fluorescence intensity was then monitored for 30-60 min. The initial velocity was calculated from the linear portion of the fluorescence increase. […]
The ability to detect intracellular caspase activities allowed us to study the pharmacological target of the potent apoptosis inhibitor ZVAD(OMe)FMK. […] Activity was assessed by the mean fluorescence channel number of PInegative cells. […] However, when addition of this inhibitor was delayed, the intracellular activity of all caspases detected rose, with no significant selective depletion of activity. […]

thymocytes = conditions: in vitro; cited from earlier work
[1] = intravenously injected antiFas; ischemia-reperfusion stroke model; cited from earlier work
[2] = tested on: Jurkat cells, HL-60 cells, human lymphocyte lines, A1.1 cells, murine primary thymocytes; assay: Cellular uptake of substrates by fluorescence microscopy, flow cytometry, HPLC; type: cell-based; conditions: viable cells
Protocol: The compounds listed in Table 6 were synthesized and assayed for cellular uptake. Cellular internalization of the substrates was tested using Jurkat cells (a human acute T cell leukemic line), HL-60 cells (a human promyelocytic leukemic line), human lymphocyte lines, A1.1 cells (a murine T-cell line), and murine primary thymocytes. Procedures used in determining substrate uptake by viable cells are provided in Example 6 (for the HPLC procedures), in Example 2 (for the fluorescence microscopic analysis), and in Example 3 (for the flow cytometric analysis) a summary of these analyses with respect to cellular uptake of substrates is presented in this example.
The elastase substrate, Fm—K[F1]DAIPNluSIPK[F1]GY (SEQ ID NO:185), (where F1 was carboxytetramethylrhodamine, Fm was Fmoc, K[F1] was F1 covalently attached through the epsilon amino group of lysine (K), and Fm—K is the Fmoc group covalently attached at the alpha amino group of the amino terminal lysine residue) was used with HL-60 cells. Cells were incubated with various concentrations of elastase substrate ranging from 10 nM to 10 μM for 5 minutes to 60 minutes. Then the cells were diluted 5-fold with RPMI 1640 medium containing 5% serum or with phosphate buffered saline. The samples were centrifuged and washed once more with 1 ml of washing solution. After centrifugation and removal of the washing solution, cell pellets were loosened with about 25 ul of medium and these cells were transferred to a glass capillary. Capillary tubes were then placed on a glass microscope slide and examined under a fluorescence microscope using standard rhodamine filters.
For apoptosis-related protease activity determination, 10 μM concentration of the compounds listed in Example 8 (compound structures 2 through 13) were incubated with cells for 30 min. to 3 hours. The cells were then washed similarly twice. Using glass capillary tubes, the washed cells were transferred and examined under a fluorescence microscope.
(§1) The concentration of substrates used in flow cytometric analysis was 10 M in RPMI1640 medium containing 4 to 10% fetal calf serum. Cell densities during incubation with the chosen substrates ranged from 50,000 cells per ml to 4,000,000 per ml. Incubation times were from 30 min. to 3 hours at 37° C. and incubation volumes were 50 μL to 2 ml. After incubation with substrate for 30 to 60 min. cell suspensions were diluted 10-fold with ice cold Hank's Buffered Saline Solution (HBSS). This filtered cell suspension was then subjected to flow cytometric analysis using a 488 nm excitation source. Becton Dickenson, Inc.'s flow cytometer, FacSort, was used in the flow cytometric analysis. Typically, 10,000 to 30,000 events per sample were collected.

CPP32 protease = molecular target: T1, CPP32 protease (Homo sapiens, UniProt P42574); assay: Flow cytometric analysis of intracellular CPP32 protease activity in anti-Fas activated Jurkat cells; type: cell-based
T1 construct: served as a direct measure of the intracellular CPP32 protease activity; endogenous in cells
T1 sequence (P42574 29-277): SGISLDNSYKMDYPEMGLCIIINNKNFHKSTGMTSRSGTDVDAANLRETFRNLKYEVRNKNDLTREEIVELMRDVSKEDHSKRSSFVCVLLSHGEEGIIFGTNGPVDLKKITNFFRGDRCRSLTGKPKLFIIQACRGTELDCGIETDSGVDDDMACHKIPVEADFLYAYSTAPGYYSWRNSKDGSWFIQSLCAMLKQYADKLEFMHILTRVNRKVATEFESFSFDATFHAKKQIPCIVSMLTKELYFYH
Protocol: as §1, with “Typically, 10,000 to 30,000 events per sample were collected.” left out
Control cells without substrate incubation and the sample with the greatest expected fluorescence signals were used to set the instrument detector parameters. For example after 15 minutes incubation of Jurkat cells with substrate compound #11 Fm-CGD2D: Fm—K[F1]DBJGDEVDGIDGJPK[F1]GY (SEQ ID NO: 202, where F1 was carboxytetramethylrhodamine; Fm was Fmoc, K[F1] was F1 covalently attached through the epsilon amino group of lysine (K), Nlu was norleucine, B was aminoisobutyric acid, and J was epsilon-aminocaproic acid) an increase of about 10 channels indicating cellular uptake of the substrates was measured. […] As much as a ten-fold increase in fluorescence intensity was observed. […]

elastase [3] = assay: Elastase digestion of fluorogenic protease indicator, HPLC of cleavage products; type: biochemical; conditions: 1 unit of elastase, about 30 minutes, 37° C., pH 8.9
Protocol: Approximately 1 microgram of protease indicator, having the formula F^1-Asp-Ala-Ile-Pro-Nle-Ser-Ile-Pro-Cys-F^2 (SEQ ID No: 184) where F^1 is a donor fluorophore (5′-carboxytetramethylrhodamine (5-TMR)) linked to aspartic acid via the alpha amino group and F^2 is an acceptor fluorophore (rhodamine X acetamide (R492)) linked via the sulfhydryl group of the cysteine was dissolved in a buffer consisting of 50 mM sodium phosphate, 1 mM EDTA at pH 8.9. To this solution was added 1 unit of elastase. The solution was analyzed by HPLC before and about 30 minutes after the addition of elastase. The digestion was carried out at 37° C. The HPLC separated components were monitored at a wavelength of 550 nm which allowed detection of both the 5-TMR fluorophore the R492 fluorophore and at 580 nm which allowed detection of the R492 fluorophore.
In addition, the two predominant peaks in FIGS. 1(b) and 1(c) indicate that the digestion occurred primarily at a single site.

elastase [4] = assay: Emission spectrum change of indicator after addition of elastase (spectrofluorometer); type: biochemical; conditions: 37° C., slit widths 4 nm
Protocol: Changes in the emission spectrum of the fluorogenic protease indicator after the addition of an elastase protease was monitored using an SLM spectrofluorometer model 48000 with slit widths set at 4 nm on both the excitation and emission sides. All measurements were carried out at 37° C.
Spectra in FIG. 2 show emission of the fluorogenic protease indicator (a) before and (b) after addition of elastase, while the time dependent increase of the indicator's donor fluorophore emission intensity, after addition of elastase, is plotted in FIG. 3. […] The changes in intensity between treated and untreated indicators are, to some degree, a function of slit widths used, since they represent the signal integrated across the particular slit width. Thus, if wider slit widths were used (e.g. 8 or 16 nm slits) an even greater signal would be provided in response to digestion.

Compound: COC(=O)C[C@H](NC(=O)[C@H](C)NC(=O)[C@@H](NC(=O)OCc1ccccc1)C(C)C)C(=O)CF [ZVAD(OMe)FMK, carbobenzoxyvalylalanylaspartyl(bmethyl ester)fluoromethyl ketone] (Cbz-Val-Ala-Asp(OMe)-CH2F)
- effect of pretreatment followed by washing before dexamethasone addition (intracellular caspases): minimal inhibition
- effect when added before or simultaneously with dexamethasone (intracellular caspases): blocks apoptosis
- block of dexamethasone-induced thymocyte apoptosis (thymocytes): specifically blocks
- protection of mice [1]: protect mice from the lethal effects

Compound: Fm-K[F1]DBJGDEVDGIDGJPK[F1]GY (K(F1)D[code B][code J]GDEVDGIDG[code J]PK(F1)GY; not fully specified (N-terminus); printed as Fm-K[F1]DBJGDEVDGIDGJPK[F1]GY; reading uncertain) [Compound 11]
- cellular uptake (Table 6) [2]: efficient cellular uptake
- increase in fluorescence intensity in activated cells (CPP32 protease; 1 μg/ml anti-Fas antibody CH11 for 1 to 6 hours): ten-fold
- increase in channels indicating cellular uptake (CPP32 protease; 15 minutes incubation): about 10 channels

- degree of cleavage by elastase (HPLC) (elastase [3]): complete digestion
- increase in fluorescence at 589 nm after treatment with elastase (elastase [4]): > 10 fold
- increase in fluorescence within the first 1000 seconds of exposure to the protease (elastase [4]): > 5 fold
Compound: F^1-Asp-Ala-Ile-Pro-Nle-Ser-Ile-Pro-Cys-F^2 (DAIP[Nle]SIPC-{F^2}; not fully specified (residue 9, N-terminus); printed as F1-Asp-Ala-Ile-Pro-Nle-Ser-Ile-Pro-Cys-F2; reading uncertain) [D-NorFES-A, F1 5'-carboxytetramethylrhodamine donor, F2 rhodamine X acetamide acceptor]
